Experimental data taken from patent US11542240B2, “STK19 inhibitors for treatment of cancer” (TRUSTEES OF BOSTON UNIVERSITY, priority 2018, dated 2023).

How the values were obtained:
[1] = tolerability study in C57BL/6J mice (body weight, blood chemistry, H&E histology)
Procedure: (§2) Data are means±SD (n=3). […] ATP Km (app) was calculated by fitting the data with Michaelis-Menten equation. Data are means±SD (n=3). […] Data are means±SD relative to control group (n=3). […] Data are means±SD relative to control group (n=3). […] Data are means±SD relative to control groups (n=3). Body weight measurements of C57BL/6J mice treated with 0 or 25 mg/kg IV (BID) for 15 days. Data are means±SEM relative to control groups (n=8). H&E staining of tissues in C57BL/6J mice treated with 0 or 25 mg/kg IV (BID) for 15 days. Scale bar, 250 m.

[2] = molecular target: STK19 (Homo sapiens (Human), UniProt P49842); experiment: in vitro kinase assay, HA-NRASQ61R phosphorylation by immunoblot; details: dose- and time-dependent; different doses 15 min or 3 μM different times
Sequence of STK19 (P49842 other isoform, or with tags, fused parts or gaps): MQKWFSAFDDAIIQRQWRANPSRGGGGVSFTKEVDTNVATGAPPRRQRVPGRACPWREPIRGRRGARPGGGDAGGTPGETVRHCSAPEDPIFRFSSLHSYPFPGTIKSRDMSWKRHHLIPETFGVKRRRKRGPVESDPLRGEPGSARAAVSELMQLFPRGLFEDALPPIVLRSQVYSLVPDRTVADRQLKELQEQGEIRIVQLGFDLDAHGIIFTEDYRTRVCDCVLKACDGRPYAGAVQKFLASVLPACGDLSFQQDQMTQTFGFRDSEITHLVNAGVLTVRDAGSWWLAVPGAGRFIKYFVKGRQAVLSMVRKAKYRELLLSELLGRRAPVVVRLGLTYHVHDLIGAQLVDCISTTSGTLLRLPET

[3] = tested on: SK-MEL-2 cells; experiment: caspase activity assay (apoptosis), 4 days; format: cell-based, human; details: SK-MEL-2, 4 days
From the text: (§1) In addition, the inventors investigated the growth inhibitory effects of IV in melanoma cells with different NRAS and BRAF status, including A375 and UACC62 (NRASWT, BRAFV600E), and SK-MEL-2 and WM2032 (NRASQ61R, BRAFWT).

[4] = tested on: A375 cells; experiment: caspase activity assay (apoptosis), 4 days; format: cell-based, human; details: A375, 4 days
From the text: as §1

[5] = tested on: WM2032 cells; experiment: caspase activity assay (apoptosis), 4 days; format: cell-based, human; details: WM2032, 4 days
From the text: as §1

[6] = molecular target: STK19D89N (Homo sapiens (Human), UniProt P49842, D89N); experiment: STK19 kinase assay, D89N mutant; details: read-out: IC50 for STK19D89N
Sequence of STK19D89N (P49842 other isoform, or with tags, fused parts or gaps D89N): as the sequence (P49842 other isoform, or with tags, fused parts or gaps) above, with D89N counted along it
Procedure: as §2

[7] = molecular target: panel of 468 diverse kinases (Homo sapiens, UniProt O43353); experiment: biochemical; format: binding; details: RIPK2; 1000 nM; read-out: Percent Control
[8] = molecular target: panel of 468 diverse kinases (Homo sapiens, UniProt P04629); experiment: biochemical; format: binding; details: TRKA; 1000 nM; read-out: Percent Control
Sequence of panel of 468 diverse kinases (Homo sapiens, UniProt P04629) (P04629 33-796 limits assumed): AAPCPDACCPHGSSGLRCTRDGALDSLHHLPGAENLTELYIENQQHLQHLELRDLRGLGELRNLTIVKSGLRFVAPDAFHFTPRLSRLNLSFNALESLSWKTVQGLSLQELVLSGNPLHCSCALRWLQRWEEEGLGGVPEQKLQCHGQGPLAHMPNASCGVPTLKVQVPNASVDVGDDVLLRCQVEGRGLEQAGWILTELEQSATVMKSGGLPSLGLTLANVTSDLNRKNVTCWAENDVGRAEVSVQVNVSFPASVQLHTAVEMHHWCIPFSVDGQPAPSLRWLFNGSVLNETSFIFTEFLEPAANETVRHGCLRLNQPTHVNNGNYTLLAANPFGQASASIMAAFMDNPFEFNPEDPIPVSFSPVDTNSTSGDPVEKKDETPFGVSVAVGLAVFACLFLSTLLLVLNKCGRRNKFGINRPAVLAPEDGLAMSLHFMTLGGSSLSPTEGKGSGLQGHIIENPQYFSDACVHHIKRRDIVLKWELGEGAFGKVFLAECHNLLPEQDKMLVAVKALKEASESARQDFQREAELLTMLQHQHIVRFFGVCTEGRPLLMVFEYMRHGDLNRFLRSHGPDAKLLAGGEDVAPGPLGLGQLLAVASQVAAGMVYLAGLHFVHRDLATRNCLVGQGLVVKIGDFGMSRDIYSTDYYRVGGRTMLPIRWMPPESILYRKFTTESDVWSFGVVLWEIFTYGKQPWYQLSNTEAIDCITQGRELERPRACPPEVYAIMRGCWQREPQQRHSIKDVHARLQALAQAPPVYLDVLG

[9] = molecular target: panel of 468 diverse kinases (Homo sapiens, UniProt Q9Y616); experiment: biochemical; format: binding; details: IRAK3; 1000 nM; read-out: Percent Control
[10] = molecular target: panel of 468 diverse kinases (Homo sapiens, UniProt P09769); experiment: biochemical; format: binding; details: FGR; 1000 nM; read-out: Percent Control
Sequence of panel of 468 diverse kinases (Homo sapiens, UniProt P09769) (P09769 2-529 limits assumed): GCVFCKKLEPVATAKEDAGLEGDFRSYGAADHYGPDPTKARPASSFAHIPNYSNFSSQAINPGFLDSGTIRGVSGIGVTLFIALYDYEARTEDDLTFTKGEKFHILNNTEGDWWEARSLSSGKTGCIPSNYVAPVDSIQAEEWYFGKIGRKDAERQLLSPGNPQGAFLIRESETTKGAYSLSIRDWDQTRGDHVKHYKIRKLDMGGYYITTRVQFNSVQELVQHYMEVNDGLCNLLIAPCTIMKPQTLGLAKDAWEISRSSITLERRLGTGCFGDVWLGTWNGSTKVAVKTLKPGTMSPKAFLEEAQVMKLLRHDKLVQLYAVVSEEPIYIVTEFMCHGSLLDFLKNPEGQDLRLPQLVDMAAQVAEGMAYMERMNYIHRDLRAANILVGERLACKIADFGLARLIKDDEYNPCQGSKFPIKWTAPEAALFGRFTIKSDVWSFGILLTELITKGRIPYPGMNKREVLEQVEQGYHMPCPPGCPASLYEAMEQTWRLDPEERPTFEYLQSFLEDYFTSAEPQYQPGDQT

[11] = molecular target: panel of 468 diverse kinases (Homo sapiens, UniProt Q9Y5S2); experiment: biochemical; format: binding; details: MRCKB; 1000 nM; read-out: Percent Control
[12] = molecular target: panel of 468 diverse kinases (Homo sapiens, UniProt Q13546); experiment: biochemical; format: binding; details: RIPK1; 1000 nM; read-out: Percent Control
[13] = molecular target: panel of 468 diverse kinases (Homo sapiens, UniProt P00519, M351T); experiment: biochemical; format: binding; details: ABL1(M351T)-phosphorylated; 1000 nM; read-out: Percent Control
[14] = molecular target: panel of 468 diverse kinases (Homo sapiens, UniProt Q9NRP7); experiment: biochemical; format: binding; details: STK36; 1000 nM; read-out: Percent Control
[15] = molecular target: panel of 468 diverse kinases (Homo sapiens, UniProt O15111); experiment: biochemical; format: binding; details: IKK-alpha; 1000 nM; read-out: Percent Control
[16] = molecular target: panel of 468 diverse kinases (Homo sapiens, UniProt Q5S007, G2019S); experiment: biochemical; format: binding; details: LRRK2(G2019S); 1000 nM; read-out: Percent Control
[17] = molecular target: panel of 468 diverse kinases (Homo sapiens, UniProt Q8NE63); experiment: biochemical; format: binding; details: HIPK4; 1000 nM; read-out: Percent Control
[18] = molecular target: panel of 468 diverse kinases (Homo sapiens, UniProt P16591); experiment: biochemical; format: binding; details: FER; 1000 nM; read-out: Percent Control
[19] = molecular target: panel of 468 diverse kinases (Homo sapiens, UniProt P36507); experiment: biochemical; format: binding; details: MEK2; 1000 nM; read-out: Percent Control
[20] = molecular target: panel of 468 diverse kinases (Homo sapiens, UniProt Q52WX2); experiment: biochemical; format: binding; details: SBK1; 1000 nM; read-out: Percent Control
[21] = molecular target: panel of 468 diverse kinases (Homo sapiens, UniProt Q9BZL6); experiment: biochemical; format: binding; details: PRKD2; 1000 nM; read-out: Percent Control
[22] = molecular target: panel of 468 diverse kinases (Homo sapiens, UniProt Q9UBE8); experiment: biochemical; format: binding; details: NLK; 1000 nM; read-out: Percent Control
[23] = molecular target: panel of 468 diverse kinases (Homo sapiens, UniProt O00329); experiment: biochemical; format: binding; details: PIK3CD; 1000 nM; read-out: Percent Control
[24] = molecular target: panel of 468 diverse kinases (Homo sapiens, UniProt Q16584); experiment: biochemical; format: binding; details: MLK3; 1000 nM; read-out: Percent Control
[25] = molecular target: panel of 468 diverse kinases (Homo sapiens, UniProt P08922); experiment: biochemical; format: binding; details: ROS1; 1000 nM; read-out: Percent Control
Sequence of panel of 468 diverse kinases (Homo sapiens, UniProt P08922) (P08922 28-2347 limits assumed): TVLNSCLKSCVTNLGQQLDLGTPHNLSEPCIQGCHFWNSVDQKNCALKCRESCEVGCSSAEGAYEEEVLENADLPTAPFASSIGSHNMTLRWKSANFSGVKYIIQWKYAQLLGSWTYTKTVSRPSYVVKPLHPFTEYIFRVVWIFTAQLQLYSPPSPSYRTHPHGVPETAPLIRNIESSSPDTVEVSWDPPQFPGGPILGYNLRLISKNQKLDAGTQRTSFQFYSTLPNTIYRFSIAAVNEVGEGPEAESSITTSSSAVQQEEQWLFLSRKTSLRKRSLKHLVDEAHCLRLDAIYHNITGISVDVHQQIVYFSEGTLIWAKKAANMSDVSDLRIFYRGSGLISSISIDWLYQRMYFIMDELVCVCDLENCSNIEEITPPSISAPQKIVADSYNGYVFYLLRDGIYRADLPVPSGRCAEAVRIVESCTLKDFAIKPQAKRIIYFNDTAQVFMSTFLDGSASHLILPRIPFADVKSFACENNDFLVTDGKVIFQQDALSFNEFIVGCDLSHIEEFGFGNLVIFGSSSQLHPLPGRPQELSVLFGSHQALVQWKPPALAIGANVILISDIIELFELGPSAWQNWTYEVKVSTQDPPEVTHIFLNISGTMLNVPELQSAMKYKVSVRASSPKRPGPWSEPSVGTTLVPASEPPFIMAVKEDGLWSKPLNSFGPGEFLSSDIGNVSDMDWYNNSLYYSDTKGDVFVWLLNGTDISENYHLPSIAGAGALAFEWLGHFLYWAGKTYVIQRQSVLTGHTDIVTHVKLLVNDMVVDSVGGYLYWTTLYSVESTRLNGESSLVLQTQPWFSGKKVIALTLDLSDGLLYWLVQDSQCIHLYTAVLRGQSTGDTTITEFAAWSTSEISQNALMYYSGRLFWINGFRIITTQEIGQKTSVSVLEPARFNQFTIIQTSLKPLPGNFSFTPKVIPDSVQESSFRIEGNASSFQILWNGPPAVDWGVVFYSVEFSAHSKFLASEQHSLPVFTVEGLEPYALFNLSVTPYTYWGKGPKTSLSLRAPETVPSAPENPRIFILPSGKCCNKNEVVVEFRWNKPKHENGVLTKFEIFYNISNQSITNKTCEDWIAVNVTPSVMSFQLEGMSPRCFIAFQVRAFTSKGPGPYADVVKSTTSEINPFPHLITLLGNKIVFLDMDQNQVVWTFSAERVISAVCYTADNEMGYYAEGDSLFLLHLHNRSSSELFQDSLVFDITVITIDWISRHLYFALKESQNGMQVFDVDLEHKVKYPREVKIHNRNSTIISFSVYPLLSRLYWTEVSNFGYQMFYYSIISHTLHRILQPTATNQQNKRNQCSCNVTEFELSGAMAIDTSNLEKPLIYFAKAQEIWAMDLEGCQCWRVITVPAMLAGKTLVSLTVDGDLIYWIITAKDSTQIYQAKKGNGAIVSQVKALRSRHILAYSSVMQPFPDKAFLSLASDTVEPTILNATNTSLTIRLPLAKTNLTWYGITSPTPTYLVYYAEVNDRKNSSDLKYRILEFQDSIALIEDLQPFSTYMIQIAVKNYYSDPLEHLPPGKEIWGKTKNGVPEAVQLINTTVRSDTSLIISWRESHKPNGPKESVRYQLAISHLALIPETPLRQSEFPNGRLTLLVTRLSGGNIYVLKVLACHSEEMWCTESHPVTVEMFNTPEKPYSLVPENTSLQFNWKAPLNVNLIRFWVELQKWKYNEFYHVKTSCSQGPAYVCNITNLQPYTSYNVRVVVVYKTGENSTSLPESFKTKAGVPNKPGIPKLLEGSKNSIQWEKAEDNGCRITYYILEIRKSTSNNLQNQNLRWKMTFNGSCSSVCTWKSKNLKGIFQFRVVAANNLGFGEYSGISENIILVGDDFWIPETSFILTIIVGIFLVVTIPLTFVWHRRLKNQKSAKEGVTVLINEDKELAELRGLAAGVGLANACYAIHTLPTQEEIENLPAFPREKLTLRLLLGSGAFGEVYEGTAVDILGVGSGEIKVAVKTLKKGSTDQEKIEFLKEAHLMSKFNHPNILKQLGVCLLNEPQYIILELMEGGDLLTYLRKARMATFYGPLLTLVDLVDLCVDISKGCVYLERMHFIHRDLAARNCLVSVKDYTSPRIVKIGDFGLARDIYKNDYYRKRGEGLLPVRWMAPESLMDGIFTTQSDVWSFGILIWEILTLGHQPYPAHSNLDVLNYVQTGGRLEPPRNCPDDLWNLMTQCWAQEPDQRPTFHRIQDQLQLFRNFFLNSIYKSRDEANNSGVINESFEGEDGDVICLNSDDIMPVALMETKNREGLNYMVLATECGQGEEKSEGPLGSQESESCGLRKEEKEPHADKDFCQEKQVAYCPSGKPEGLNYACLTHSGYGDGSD

[26] = molecular target: panel of 468 diverse kinases (Homo sapiens, UniProt P51617); experiment: biochemical; format: binding; details: IRAK1; 1000 nM; read-out: Percent Control
[27] = molecular target: panel of 468 diverse kinases (Homo sapiens, UniProt Q9Y463); experiment: biochemical; format: binding; details: DYRK1B; 1000 nM; read-out: Percent Control
[28] = molecular target: STK19 V134Y (Homo sapiens (Human), UniProt P49842, V134Y); experiment: STK19 kinase assay, V134Y mutant; details: V134Y mutation
Sequence of STK19 V134Y (P49842 other isoform, or with tags, fused parts or gaps V134Y): as the sequence (P49842 other isoform, or with tags, fused parts or gaps) above, with V134Y counted along it

[29] = tested on: hTERT/p53DD/CDK4(R24C) melanocytes; experiment: colony formation assay of NRASQ61R-expressing immortal melanocytes; format: cell-based, human; details: 3 μM IV
[30] = blood chemistry in tolerability studies

## COc1cc2nc(NC3CC3)nc(NC3CCN(C(C)C)CC3)c2cc1OC [Formula IV]
[1]; C57BL/6J mice
  serum transaminase levels: did not affect
[1]; C57BL/6J mice, 25 mg/kg BID for 15 days
  mouse weight: did not affect
[1]; C57BL/6J mice, 25 mg/kg BID for 15 days, H&E
  histology of mouse tissues: did not affect
[1]; [30]
  Alanine aminotransferase (ALT): 27.6 ± 5.6 U/L
  Albumin (ALB): 28.3 ± 2.7 g/L
  Alkaline phosphatase (ALP): 3.9 ± 1.7 U/L
  Aspartate aminotransferase (AST): 54.4 ± 9.4 U/L
  Creatinine (CRE): 17.7 ± 4.2 µmol/L
  Lactic dehydrogenase (LDH): 247.3 ± 41.0 U/L
  Phosphorus (P): 1.67 ± 0.39
  Total bilirubin (T-Bil): 2.68 ± 0.44 µmol/L
  Total protein (TP): 50.9 ± 2.5 g/L
[2]
  phosphorylation of NRAS: efficiently inhibited
[3]
  apoptosis: induced apoptosis
[4]
  apoptosis: reduced impact
[5]
  apoptosis: induced apoptosis
[6]
  IC50: 27.9 nM
[7]
  remaining activity at 1 µM: 94%
[8]
  remaining activity at 1 µM: 67%
[9]
  remaining activity at 1 µM: 99%
[10]
  remaining activity at 1 µM: 100%
[11]
  remaining activity at 1 µM: 92%
[12]
  remaining activity at 1 µM: 87%
[13]
  remaining activity at 1 µM: 59%
[14]
  remaining activity at 1 µM: 77%
[15]
  remaining activity at 1 µM: 80%
[16]
  remaining activity at 1 µM: 54%
[17]
  remaining activity at 1 µM: 91%
[18]
  remaining activity at 1 µM: 90%
[19]
  remaining activity at 1 µM: 58%
[20]
  remaining activity at 1 µM: 64%
[21]
  remaining activity at 1 µM: 64%
[22]
  remaining activity at 1 µM: 100%
[23]
  remaining activity at 1 µM: 74%
[24]
  remaining activity at 1 µM: 93%
[25]
  remaining activity at 1 µM: 90%
[26]
  remaining activity at 1 µM: 80%
[27]
  remaining activity at 1 µM: 86%
[28]
  inhibitory potential of IV for STK19 V134Y: remarkably compromised
[29]
  mutant NRAS/STK19-driven melanocyte colony formation: significantly inhibited
